According to patent publication US10392347B2, “2,4-dihydroxy-nicotinamides as APJ agonists” (BRISTOL-MYERS SQUIBB COMPANY, priority 2015, dated 2019):
Like-named read-outs stand apart in the source and are kept apart here.

Target: T1, human APJ receptor (Homo sapiens, UniProt P35414)
T1 construct: expressed in transfected cells
T1 sequence (P35414 1-380): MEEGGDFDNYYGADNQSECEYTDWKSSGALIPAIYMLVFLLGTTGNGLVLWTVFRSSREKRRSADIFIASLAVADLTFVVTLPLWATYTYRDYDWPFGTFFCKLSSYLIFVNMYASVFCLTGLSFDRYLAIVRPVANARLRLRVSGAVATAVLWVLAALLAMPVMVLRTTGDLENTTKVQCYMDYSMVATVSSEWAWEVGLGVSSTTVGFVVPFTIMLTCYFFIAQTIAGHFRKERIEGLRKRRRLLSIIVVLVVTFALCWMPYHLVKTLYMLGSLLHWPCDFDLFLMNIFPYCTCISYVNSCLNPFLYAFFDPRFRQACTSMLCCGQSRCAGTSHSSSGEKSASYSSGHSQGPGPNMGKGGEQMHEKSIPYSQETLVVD
Test: Intracellular cAMP accumulation assay (APJ hcAMP, HTRF)
Assay type: cell-based
Conditions: Table 1, HEK293 cells stably expressing human APJ, forskolin-stimulated cAMP
Protocol: Intracellular cAMP Accumulation Assay
HEK293 cells stably expressing human APJ receptor were used to assess the activity of compounds. Cultured cells were detached and resuspended in the cAMP Homogeneous Time-Resolved Fluorescence (HTRF) assay buffer (Cisbio cat; #62AM4PEJ). […] Serial dilutions of a compound together with assay buffer containing […] and 2 μM forskolin were added to each well containing 5,000 cells and incubated for 30 minutes at room temperature. Subsequently, cAMP D2 reagent was added in the lysis buffer followed by the EuK antibody (Cisbio; cat #62AM4PEJ) and incubated for 60 min. The fluorescence emission ratio was measured using fluorometer. The intracellular cAMP concentrations (compound-stimulated inhibition of forskolin-mediated cAMP production) were calculated by extrapolation from a standard curve using known cAMP concentrations. The EC50 values were obtained by fitting the data to a sigmoidal concentration-response curve with variable slope.
The EC50 value of each compound is presented at the end of the example description.
The biological activity of the exemplified compounds of this invention determined by the assay described above is shown at the end of each example.

| Compound | EC50 (read-out: APJ cAMP EC50) | EC50 (APJ cAMP EC50 (nM)) |
| --- | --- | --- |
| CCCCc1nc(O)c(C(=O)N2CCC(c3cc(-c4ccco4)n[nH]3)CC2)c(O)c1-c1c(OC)cccc1OC [Example 20, 6-butyl-5-(2,6-dimethoxyphenyl)-3-{4-[3-(furan-2-yl)-1H-pyrazol-5-yl]piperidine-1-carbonyl}pyridine-2,4-diol] | 10 to 100 nM | – |
| CCCCc1nc(O)c(C(=O)N2CCN(c3cccnn3)CC2)c(O)c1-c1c(OC)cccc1OC [Example 21, 6-butyl-5-(2,6-dimethoxyphenyl)-3-[4-(pyridazin-3-yl)piperazine-1-carbonyl]pyridine-2,4-diol] | 100 to 300 nM | – |
| CCCCc1nc(O)c(C(=O)N2CCC(c3ccccc3Cl)CC2)c(O)c1-c1c(OC)cccc1OC [Example 23, 6-butyl-3-[4-(2-chlorophenyl)piperidine-1-carbonyl]-5-(2,6-dimethoxyphenyl)pyridine-2,4-diol] | 10 to 100 nM | – |
| CCCCc1nc(O)c(C(=O)N2CCC(c3ccc(C(N)=O)cc3)CC2)c(O)c1-c1c(OC)cccc1OC [Example 24, 4-{1-[6-butyl-5-(2,6-dimethoxyphenyl)-2,4-dihydroxypyridine-3-carbonyl]piperidin-4-yl}benzamide] | 10 to 100 nM | – |
| CCOCc1nc(O)c(C(=O)N2CC[C@@H](c3ccccc3)C2)c(O)c1-c1c(OC)cccc1OC [Example 25, 5-(2,6-dimethoxyphenyl)-6-(ethoxymethyl)-3-[(3S)-3-phenylpyrrolidine-1-carbonyl]pyridine-2,4-diol] | 10 to 100 nM | – |
| CCCCc1[nH]c(=O)c(C(=O)N(C)CCc2ccc(Cl)cc2)c(O)c1-c1c(OC)cccc1OC [Example 27, 6-butyl-N-[2-(4-chlorophenyl)ethyl]-5-(2,6-dimethoxyphenyl)-2,4-dihydroxy-N-methylpyridine-3-carboxamide] | – | 10 to 100 nM |
| CCCCc1[nH]c(=O)c(C(=O)N2CC[C@H](c3ccccc3)C2)c(O)c1-c1c(OC)cccc1OC [Example 28, 6-butyl-5-(2,6-dimethoxyphenyl)-3-[(3R)-3-phenylpyrrolidine-1-carbonyl]pyridine-2,4-diol] | – | 0.01 to 10 nM |
| CCCCc1[nH]c(=O)c(C(=O)N2CC[C@@H](c3ccccc3)C2)c(O)c1-c1c(OC)cccc1OC [Example 29, 6-butyl-5-(2,6-dimethoxyphenyl)-3-[(3S)-3-phenylpyrrolidine-1-carbonyl]pyridine-2,4-diol] | – | 0.01 to 10 nM |
| CCCCc1nc(O)c(C(=O)N2CCN(c3ccccc3)CC2)c(O)c1-c1c(OC)cccc1OC [Example 30, 6-butyl-5-(2,6-dimethoxyphenyl)-3-(4-phenylpiperazine-1-carbonyl)pyridine-2,4-diol] | 10 to 100 nM | – |
| CCCCc1[nH]c(=O)c(C(=O)N(CCC)Cc2ccccc2)c(O)c1-c1c(OC)cccc1OC [Example 33, N-benzyl-6-butyl-5-(2,6-dimethoxyphenyl)-2,4-dihydroxy-N-propylpyridine-3-carboxamide] | – | 100 to 300 nM |
| CCCCc1nc(O)c(C(=O)N2CCN(C(=O)c3cccc(F)c3)CC2)c(O)c1-c1c(OC)cccc1OC [Example 42, 6-butyl-5-(2,6-dimethoxyphenyl)-3-[4-(3-fluorobenzoyl)piperazine-1-carbonyl]pyridine-2,4-diol] | 0.01 to 10 nM | – |
| CCCCc1nc(O)c(C(=O)N2CCN(Cc3ccc(F)cc3)CC2)c(O)c1-c1c(OC)cccc1OC [Example 43, 6-butyl-5-(2,6-dimethoxyphenyl)-3-{4-[(4-fluorophenyl)methyl]piperazine-1-carbonyl}pyridine-2.4-diol] | 0.01 to 10 nM | – |
| CCCCc1nc(O)c(C(=O)N2CCN(Cc3ccccc3F)CC2)c(O)c1-c1c(OC)cccc1OC [Example 44, 6-butyl-5-(2,6-dimethoxyphenyl)-3-{4-[(2-fluorophenyl)methyl]piperiazine-1-carbonyl}pyridine-2.4-diol] | 0.01 to 10 nM | – |
| CCCCc1nc(O)c(C(=O)N2CCN(Cc3cccc(F)c3)CC2)c(O)c1-c1c(OC)cccc1OC [Example 45, 6-butyl-5-(2,6-dimethoxyphenyl)-3-{4-[(3-fluorophenyl)methyl]piperazine-1-carbonyl}pyridine-2,4-diol] | 0.01 to 10 nM | – |
| CCCCc1nc(O)c(C(=O)N2CCC(O)(c3ccccc3)CC2)c(O)c1-c1c(OC)cccc1OC [Example 46, 6-butyl-5-(2,6-dimethoxyphenyl)-3-(4-hydroxy-4-phenylpiperidine-1-carbonyl)pyridine-2,4-diol] | 10 to 100 nM | – |
| CCCCc1nc(O)c(C(=O)N2CCC(O)(c3ccc(Cl)cc3)CC2)c(O)c1-c1c(OC)cccc1OC [Example 47, 6-butyl-3-[4-(4-chlorophenyl)-4-hydroxypiperidine-1-carbonyl]-5-(2,6-dimethoxyphenyl)pyridine-2,4-diol] | 10 to 100 nM | – |
| CCCCc1nc(O)c(C(=O)N2CCN(c3nsc4ccccc34)CC2)c(O)c1-c1c(OC)cccc1OC [Example 49, 3-[4-(1,2-benzothiazol-3-yl)piperazine-1-carbonyl]-6-butyl-5-(2,6-dimethoxyphenyl)pyridine-2,4-diol] | 0.01 to 10 nM | – |
| CCCCc1nc(O)c(C(=O)N2CCN(c3nc4ccccc4o3)CC2)c(O)c1-c1c(OC)cccc1OC [Example 51, 3-[4-(1,3-benzoxazol-2-yl)piperazine-1-carbonyl]-6-butyl-5-(2,6-dimethoxyphenyl)pyridine-2,4-diol] | 10 to 100 nM | – |
| CCCCc1nc(O)c(C(=O)N2CCN(c3nnnn3-c3ccccc3)CC2)c(O)c1-c1c(OC)cccc1OC [Example 52, 6-butyl-5-(2,6-dimethoxyphenyl)-3-[4-(1-phenyl-1H-1,2,3,4-tetrazol-5-yl)piperazine-1-carbonyl]pyridine-2,4-diol] | 0.01 to 10 nM | – |
| CCCCc1nc(O)c(C(=O)N2CCN(c3nc4ccccc4s3)CC2)c(O)c1-c1c(OC)cccc1OC [Example 54, 3-[4-(1,3-benzothiazol-2-yl)piperazine-1-carbonyl]-6-butyl-5-(2,6-dimethoxyphenyl)pyridine-2,4-diol] | 10 to 100 nM | – |
| CCCCc1nc(O)c(C(=O)N2CCC(c3c[nH]cn3)CC2)c(O)c1-c1c(OC)cccc1OC [Example 55, 6-butyl-5-(2,6-dimethoxyphenyl)-3-[4-(1H-imidazol-4-yl)piperidine-1-carbonyl]pyridine-2,4-diol] | 10 to 100 nM | – |

Second part, the compound after the results:

| EC50 (read-out: APJ cAMP EC50) | EC50 (APJ cAMP EC50 (nM)) | Compound |
| --- | --- | --- |
| 100 to 300 nM | – | CCCCc1nc(O)c(C(=O)N2CCN(c3ccncc3)CC2)c(O)c1-c1c(OC)cccc1OC [Example 22, 6-butyl-5-(2,6-dimethoxyphenyl)-3-[4-(pyridin-4-yl)piperazine-1-carbonyl]pyridine-2,4-diol] |
| 10 to 100 nM | – | CCOCc1nc(O)c(C(=O)N2CC[C@H](c3ccccc3)C2)c(O)c1-c1c(OC)cccc1OC [Example 26, 5-(2,6-dimethoxyphenyl)-6-(ethoxymethyl)-3-[(3R)-3-phenylpyrrolidine-1-carbonyl]pyridine-2,4-diol] |
| 0.01 to 10 nM | – | CCCCc1nc(O)c(C(=O)N2CCN(Cc3ccc(Cl)cc3)CC2)c(O)c1-c1c(OC)cccc1OC [Example 31, 6-butyl-3-{4-[(4-chlorophenyl)methyl]piperazine-1-carbonyl}-5-(2,6-dimethoxyphenyl)pyridine-2,4-diol] |
| 10 to 100 nM | – | CCCCc1nc(O)c(C(=O)N2CCC(c3nc4ccccc4o3)CC2)c(O)c1-c1c(OC)cccc1OC [Example 32, 3-[4-(1,3-benzoxazol-2-yl)piperidine-1-carbonyl]-6-butyl-5-(2,6-dimethoxyphenyl)pyridine-2,4-diol] |
| 0.01 to 10 nM | – | CCCCc1nc(O)c(C(=O)N2CC(c3cccc(Cl)c3)C2)c(O)c1-c1c(OC)cccc1OC [Example 34, 6-butyl-3-[3-(3-chlorophenyl)azetidine-1-carbonyl]-5-(2,6-dimethoxyphenyl)pyridine-2,4-diol] |
| 0.01 to 10 nM | – | CCCCc1nc(O)c(C(=O)N2CCN(C(=O)c3ccccc3)CC2)c(O)c1-c1c(OC)cccc1OC [Example 41, 3-(4-benzoylpiperazine-1-carbonyl)-6-butyl-5-(2,6-dimethoxyphenyl)pyridine-2,4-diol] |
| 10 to 100 nM | – | CCCCc1nc(O)c(C(=O)N2CCC(c3nc4ccccc4s3)CC2)c(O)c1-c1c(OC)cccc1OC [Example 48, 3-[4-(1,3-benzothiazol-2-yl)piperidine-1-carbonyl]-6-butyl-5-(2,6-dimethoxyphenyl)pyridine-2,4-diol] |
| 10 to 100 nM | – | CCCCc1nc(O)c(C(=O)N2CCC3(CC2)OC(=O)Nc2ccccc23)c(O)c1-c1c(OC)cccc1OC [Example 50, 1′-[6-butyl-5-(2,6-dimethoxyphenyl)-2,4-dihydroxypyridine-3-carbonyl]-1,2-dihydrospiro[3,1-benzoxazine-4,4′-piperidine]-2-one] |
| 10 to 100 nM | – | CCCCc1nc(O)c(C(=O)N2CCCN(c3nnnn3-c3ccccc3)CC2)c(O)c1-c1c(OC)cccc1OC [Example 53, 6-butyl-5-(2,6-dimethoxyphenyl)-3-[4-(1-phenyl-1H-1,2,3,4-tetrazol-5-yl)-1,4-diazepane-1-carbonyl]pyridine-2,4-diol] |
